How the values were obtained:
[1] = (§1) The drug is tested on WLS-010 corresponding to human gut metagenome with ENA study accession number: PRJEB37062 and ENA sample accession number: ERS12561743 for biotransformation under anaerobic condition. The drug concentrations were measured over 9 timepoints collected between 0 and 24 hours of incubation by liquid-chromatography-coupled mass spectrometry (LC–MS); conditions: 2 µM
[2] = human gut metagenome, 24 h, 2 µM
[3] = as §1, with “Z-021” for “WLS-010”, “to” for “to human gut”, “ERS12561820” for “ERS12561743”; conditions: 2 µM
[4] = as §1, with “Z-026” for “WLS-010”, “to” for “to human gut”, “ERS12561825” for “ERS12561743”; conditions: 2 µM
[5] = human gut metagenome, 24 h, 2 µM; remark: listed apart in the source
[6] = as §1, with “Z-006” for “WLS-010”, “mouse” for “human”, “ERS12561806” for “ERS12561743”; conditions: 2 µM
[7] = as §1, with “WLS-370” for “WLS-010”, “ERS12561793” for “ERS12561743”; conditions: 2 µM
[8] = as §1, with “Z-001” for “WLS-010”, “mouse” for “human”, “ERS12561801” for “ERS12561743”; conditions: 2 µM
[9] = as §1, with “WLS-006” for “WLS-010”, “ERS12561741” for “ERS12561743”; conditions: 2 µM
[10] = human gut metagenome, 24 h, 2 µM; remark: listed apart in the source
[11] = as §1, with “WLS-027” for “WLS-010”, “ERS12561744” for “ERS12561743”; conditions: 2 µM
[12] = human gut metagenome, 24 h, 2 µM; remark: listed apart in the source
[13] = human gut metagenome, 24 h, 2 µM; remark: listed apart in the source
[14] = human gut metagenome, 24 h, 2 µM; remark: listed apart in the source
[15] = human gut metagenome, 24 h, 2 µM; remark: listed apart in the source
[16] = human gut metagenome, 24 h, 2 µM; remark: listed apart in the source
[17] = as §1, with “WLS-038” for “WLS-010”, “ERS12561745” for “ERS12561743”; conditions: 2 µM
[18] = human gut metagenome, 24 h, 2 µM; remark: listed apart in the source
[19] = as §1, with “Z-025” for “WLS-010”, “rabbit” for “human”, “ERS12561824” for “ERS12561743”; conditions: 2 µM
[20] = human gut metagenome, 24 h, 2 µM; remark: listed apart in the source
Note: call rule not given here.

Bacterial Biotransformation [1] | Bacterial Biotransformation [2] | Bacterial Biotransformation [3] | Bacterial Biotransformation [4] | Bacterial Biotransformation [5] | Bacterial Biotransformation [6] | Bacterial Biotransformation [7] | Bacterial Biotransformation [8] | Bacterial Biotransformation [9] | Bacterial Biotransformation [10] | Bacterial Biotransformation [11] | Bacterial Biotransformation [12] | Bacterial Biotransformation [13] | Bacterial Biotransformation [14] | Bacterial Biotransformation [15] | Bacterial Biotransformation [16] | Bacterial Biotransformation [17] | Bacterial Biotransformation [18] | Bacterial Biotransformation [19] | Bacterial Biotransformation [20] | SMILES
Compound NOT metabolized | Compound NOT metabolized | Compound metabolized | Compound NOT metabolized | Compound NOT metabolized | Compound NOT metabolized | Compound NOT metabolized | Compound NOT metabolized | Compound NOT metabolized | Compound NOT metabolized | Compound NOT metabolized | Compound NOT metabolized | Compound NOT metabolized | Compound NOT metabolized | Compound NOT metabolized | Compound NOT metabolized | Compound NOT metabolized | Compound NOT metabolized | Compound NOT metabolized | Compound NOT metabolized | COc1ccccc1OCC(O)CN1CCN(CC(=O)Nc2c(C)cccc2C)CC1 (stereo not given) [RANOLAZINE]
Compound NOT metabolized | Compound NOT metabolized | Compound NOT metabolized | Compound NOT metabolized | Compound NOT metabolized | Compound NOT metabolized | Compound NOT metabolized | Compound NOT metabolized | Compound metabolized | Compound NOT metabolized | Compound NOT metabolized | Compound NOT metabolized | Compound NOT metabolized | Compound NOT metabolized | Compound NOT metabolized | Compound NOT metabolized | Compound NOT metabolized | Compound NOT metabolized | Compound metabolized | Compound metabolized | CCCc1nn(C)c2c(=O)[nH]c(-c3cc(S(=O)(=O)N4CCN(C)CC4)ccc3OCC)nc12.O=C(O)CC(O)(CC(=O)O)C(=O)O [SILDENAFIL CITRATE]
Compound metabolized | Compound NOT metabolized | Compound NOT metabolized | Compound metabolized | Compound NOT metabolized | Compound metabolized | Compound metabolized | Compound metabolized | Compound metabolized | Compound metabolized | Compound metabolized | Compound metabolized | Compound NOT metabolized | Compound metabolized | Compound metabolized | Compound metabolized | Compound metabolized | Compound NOT metabolized | Compound metabolized | Compound metabolized | COc1ccc2[nH]c([S+]([O-])Cc3ncc(C)c(OC)c3C)nc2n1 (stereo not given) [TENATOPRAZOLE]
Compound NOT metabolized | Compound NOT metabolized | Compound metabolized | Compound NOT metabolized | Compound NOT metabolized | Compound NOT metabolized | Compound NOT metabolized | Compound NOT metabolized | Compound NOT metabolized | Compound NOT metabolized | Compound NOT metabolized | Compound NOT metabolized | Compound NOT metabolized | Compound NOT metabolized | Compound NOT metabolized | Compound NOT metabolized | Compound NOT metabolized | Compound NOT metabolized | Compound metabolized | Compound NOT metabolized | CN1C(C(=O)Nc2ccccn2)=C(O)c2sccc2S1(=O)=O [TENOXICAM]

Second part, the molecule before the results:

SMILES | Bacterial Biotransformation [1] | Bacterial Biotransformation [2] | Bacterial Biotransformation [3] | Bacterial Biotransformation [4] | Bacterial Biotransformation [5] | Bacterial Biotransformation [6] | Bacterial Biotransformation [7] | Bacterial Biotransformation [8] | Bacterial Biotransformation [9] | Bacterial Biotransformation [10] | Bacterial Biotransformation [11] | Bacterial Biotransformation [12] | Bacterial Biotransformation [13] | Bacterial Biotransformation [14] | Bacterial Biotransformation [15] | Bacterial Biotransformation [16] | Bacterial Biotransformation [17] | Bacterial Biotransformation [18] | Bacterial Biotransformation [19] | Bacterial Biotransformation [20]
Nc1ccc(/N=N/c2ccccc2)c(N)n1 [PHENAZOPYRIDINE] | Compound metabolized | Compound metabolized | Compound metabolized | Compound metabolized | Compound metabolized | Compound metabolized | Compound metabolized | Compound metabolized | Compound metabolized | Compound metabolized | Compound metabolized | Compound metabolized | Compound metabolized | Compound metabolized | Compound metabolized | Compound metabolized | Compound metabolized | Compound metabolized | Compound metabolized | Compound metabolized
CC(C(=O)O)c1ccc2c(c1)Cc1cccnc1O2 (stereo not given) [PRANOPROFEN] | Compound metabolized | Compound metabolized | Compound metabolized | Compound NOT metabolized | Compound metabolized | Compound metabolized | Compound metabolized | Compound metabolized | Compound metabolized | Compound metabolized | Compound metabolized | Compound metabolized | Compound metabolized | Compound metabolized | Compound metabolized | Compound metabolized | Compound metabolized | Compound metabolized | Compound metabolized | Compound metabolized
CCc1nc(N)nc(N)c1-c1ccc(Cl)cc1 [PYRIMETHAMINE] | Compound NOT metabolized | Compound metabolized | Compound NOT metabolized | Compound NOT metabolized | Compound NOT metabolized | Compound NOT metabolized | Compound NOT metabolized | Compound NOT metabolized | Compound NOT metabolized | Compound NOT metabolized | Compound NOT metabolized | Compound NOT metabolized | Compound NOT metabolized | Compound NOT metabolized | Compound NOT metabolized | Compound NOT metabolized | Compound NOT metabolized | Compound NOT metabolized | Compound NOT metabolized | Compound NOT metabolized
Cc1nc2n(c(=O)c1CCN1CCC(c3noc4cc(F)ccc34)CC1)CCCC2 [RISPERIDONE] | Compound metabolized | Compound metabolized | Compound metabolized | Compound NOT metabolized | Compound metabolized | Compound metabolized | Compound metabolized | Compound metabolized | Compound metabolized | Compound metabolized | Compound metabolized | Compound metabolized | Compound NOT metabolized | Compound metabolized | Compound metabolized | Compound metabolized | Compound metabolized | Compound metabolized | Compound metabolized | Compound metabolized

Reference: ChEMBL document CHEMBL5724914, “Linking interpersonal differences in gut microbiota composition and drug biotransformation activity” (2024)
